The results in this text go back to ChEMBL document CHEMBL5465560, “Selectivity Literature for EUbOPEN Chemogenomic Library” (2024).

Experiment [1] concerns the target Cyclin-dependent kinase 9 (Homo sapiens, UniProt P50750). In words: Selectivity interaction (Ambit KINOMEscan and KiNATiv profiling in Jurkat cells) EUB0000090b CDK9. Format: cell-based. The note with it: at 1 µM.
For experiment [2], the system named is Hepatocyte growth factor receptor (Homo sapiens), P08581 [M1250T]. Briefly: (§1) Selectivity interaction (KinomeScan (DiscoverX)) EUB0001079a MET. The note with it: at 1 µM.
Sequence of Hepatocyte growth factor receptor (Homo sapiens), P08581 [M1250T] (P08581 whole entry M1250T): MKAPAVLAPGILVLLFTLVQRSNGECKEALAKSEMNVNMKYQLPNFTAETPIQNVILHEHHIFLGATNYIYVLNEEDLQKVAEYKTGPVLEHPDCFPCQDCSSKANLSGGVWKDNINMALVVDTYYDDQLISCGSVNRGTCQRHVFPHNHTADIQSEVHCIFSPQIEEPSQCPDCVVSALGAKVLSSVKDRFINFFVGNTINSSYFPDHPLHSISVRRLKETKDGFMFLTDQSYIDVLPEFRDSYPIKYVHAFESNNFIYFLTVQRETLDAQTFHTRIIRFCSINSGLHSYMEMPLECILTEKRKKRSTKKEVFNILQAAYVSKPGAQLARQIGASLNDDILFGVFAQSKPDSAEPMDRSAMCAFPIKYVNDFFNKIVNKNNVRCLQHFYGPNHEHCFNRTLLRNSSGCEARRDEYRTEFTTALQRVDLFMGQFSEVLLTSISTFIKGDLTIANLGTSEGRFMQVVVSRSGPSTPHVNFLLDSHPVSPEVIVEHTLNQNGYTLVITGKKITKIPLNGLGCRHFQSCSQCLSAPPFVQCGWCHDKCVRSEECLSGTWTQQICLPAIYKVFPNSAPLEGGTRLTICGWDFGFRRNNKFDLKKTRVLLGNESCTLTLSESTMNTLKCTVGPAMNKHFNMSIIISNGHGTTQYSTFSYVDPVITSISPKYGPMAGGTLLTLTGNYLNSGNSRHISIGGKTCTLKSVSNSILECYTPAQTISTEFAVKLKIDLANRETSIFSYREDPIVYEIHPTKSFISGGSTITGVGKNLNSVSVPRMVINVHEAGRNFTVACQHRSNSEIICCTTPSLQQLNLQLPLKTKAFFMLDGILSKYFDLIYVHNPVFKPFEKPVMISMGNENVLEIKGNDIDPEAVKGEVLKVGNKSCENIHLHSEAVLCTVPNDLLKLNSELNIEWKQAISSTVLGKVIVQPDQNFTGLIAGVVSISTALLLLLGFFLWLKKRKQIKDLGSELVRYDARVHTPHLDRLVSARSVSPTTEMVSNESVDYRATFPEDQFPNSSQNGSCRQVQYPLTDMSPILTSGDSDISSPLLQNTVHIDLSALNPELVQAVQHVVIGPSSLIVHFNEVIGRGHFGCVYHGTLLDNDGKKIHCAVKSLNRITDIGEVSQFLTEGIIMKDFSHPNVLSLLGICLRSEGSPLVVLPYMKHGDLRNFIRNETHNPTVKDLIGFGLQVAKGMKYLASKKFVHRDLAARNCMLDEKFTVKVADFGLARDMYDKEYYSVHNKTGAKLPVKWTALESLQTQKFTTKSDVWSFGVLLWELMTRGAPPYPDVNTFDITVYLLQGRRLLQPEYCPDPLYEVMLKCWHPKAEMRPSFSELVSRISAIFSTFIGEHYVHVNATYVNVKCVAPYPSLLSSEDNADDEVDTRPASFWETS
The target in experiment [3] is Hepatocyte growth factor receptor (Homo sapiens, UniProt P08581). The description is as §1. The note with it: at 1 µM.
The subject of experiment [4] is Hepatocyte growth factor receptor (Homo sapiens), P08581 [Y1235D]. The experiment is described as §1. The note with it: at 1 µM.
Experiment [5] has as its target 5-hydroxytryptamine receptor 1E (Homo sapiens) (UniProt P28566). Briefly: Selectivity interaction (GPCR panel (PDSP screen)) EUB0001079a HTR1E. The note with it: at 10 µM.
Experiment [6] deals with Serine/threonine-protein kinase RIO2 (Homo sapiens) (UniProt Q9BVS4). Briefly: Selectivity interaction (KinomeScan (DiscoverX)) EUB0001049a RIOK2. The note with it: at 1 µM.
Sequence of Serine/threonine-protein kinase RIO2 (Homo sapiens) (Q9BVS4 whole entry, looked up): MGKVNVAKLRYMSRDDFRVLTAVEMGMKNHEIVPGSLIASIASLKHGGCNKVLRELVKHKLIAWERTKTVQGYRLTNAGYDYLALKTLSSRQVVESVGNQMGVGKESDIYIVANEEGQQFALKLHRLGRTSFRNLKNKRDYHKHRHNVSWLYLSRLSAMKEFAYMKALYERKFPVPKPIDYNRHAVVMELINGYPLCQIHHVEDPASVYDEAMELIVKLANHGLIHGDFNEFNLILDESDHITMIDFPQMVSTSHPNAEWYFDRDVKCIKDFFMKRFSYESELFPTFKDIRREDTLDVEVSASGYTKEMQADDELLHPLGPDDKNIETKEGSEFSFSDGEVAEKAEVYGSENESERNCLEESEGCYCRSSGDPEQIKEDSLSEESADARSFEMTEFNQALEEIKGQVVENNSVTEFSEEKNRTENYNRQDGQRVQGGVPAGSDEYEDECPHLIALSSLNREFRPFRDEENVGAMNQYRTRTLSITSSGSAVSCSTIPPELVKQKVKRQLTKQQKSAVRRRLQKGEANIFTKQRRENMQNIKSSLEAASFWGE
Experiment [7] deals with Mitogen-activated protein kinase 8 (Homo sapiens, UniProt P45983). In words: Selectivity interaction (Kinase screening (Upstate/Millipore)) EUB0000604a MAPK8.
Sequence of Mitogen-activated protein kinase 8 (P45983 whole entry): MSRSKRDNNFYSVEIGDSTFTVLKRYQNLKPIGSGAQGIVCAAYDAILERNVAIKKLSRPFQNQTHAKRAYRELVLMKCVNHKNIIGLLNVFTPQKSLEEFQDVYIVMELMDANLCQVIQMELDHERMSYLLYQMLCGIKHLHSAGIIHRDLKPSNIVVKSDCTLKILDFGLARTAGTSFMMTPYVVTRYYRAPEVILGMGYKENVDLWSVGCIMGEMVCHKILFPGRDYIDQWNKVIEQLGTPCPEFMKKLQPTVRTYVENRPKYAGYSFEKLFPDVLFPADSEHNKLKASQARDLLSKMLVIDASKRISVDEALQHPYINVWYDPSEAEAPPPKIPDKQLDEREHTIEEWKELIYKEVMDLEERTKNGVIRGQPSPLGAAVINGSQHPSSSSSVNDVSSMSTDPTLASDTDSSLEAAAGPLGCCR
The target in experiment [8] is Receptor-type tyrosine-protein kinase FLT3 (Homo sapiens) (UniProt P36888). In words: Selectivity interaction (Kinase panel (Z-LYTE Assay)) EUB0001632a FLT3. The note with it: at 10 µM.
Sequence of Receptor-type tyrosine-protein kinase FLT3 (Homo sapiens) (P36888 whole entry): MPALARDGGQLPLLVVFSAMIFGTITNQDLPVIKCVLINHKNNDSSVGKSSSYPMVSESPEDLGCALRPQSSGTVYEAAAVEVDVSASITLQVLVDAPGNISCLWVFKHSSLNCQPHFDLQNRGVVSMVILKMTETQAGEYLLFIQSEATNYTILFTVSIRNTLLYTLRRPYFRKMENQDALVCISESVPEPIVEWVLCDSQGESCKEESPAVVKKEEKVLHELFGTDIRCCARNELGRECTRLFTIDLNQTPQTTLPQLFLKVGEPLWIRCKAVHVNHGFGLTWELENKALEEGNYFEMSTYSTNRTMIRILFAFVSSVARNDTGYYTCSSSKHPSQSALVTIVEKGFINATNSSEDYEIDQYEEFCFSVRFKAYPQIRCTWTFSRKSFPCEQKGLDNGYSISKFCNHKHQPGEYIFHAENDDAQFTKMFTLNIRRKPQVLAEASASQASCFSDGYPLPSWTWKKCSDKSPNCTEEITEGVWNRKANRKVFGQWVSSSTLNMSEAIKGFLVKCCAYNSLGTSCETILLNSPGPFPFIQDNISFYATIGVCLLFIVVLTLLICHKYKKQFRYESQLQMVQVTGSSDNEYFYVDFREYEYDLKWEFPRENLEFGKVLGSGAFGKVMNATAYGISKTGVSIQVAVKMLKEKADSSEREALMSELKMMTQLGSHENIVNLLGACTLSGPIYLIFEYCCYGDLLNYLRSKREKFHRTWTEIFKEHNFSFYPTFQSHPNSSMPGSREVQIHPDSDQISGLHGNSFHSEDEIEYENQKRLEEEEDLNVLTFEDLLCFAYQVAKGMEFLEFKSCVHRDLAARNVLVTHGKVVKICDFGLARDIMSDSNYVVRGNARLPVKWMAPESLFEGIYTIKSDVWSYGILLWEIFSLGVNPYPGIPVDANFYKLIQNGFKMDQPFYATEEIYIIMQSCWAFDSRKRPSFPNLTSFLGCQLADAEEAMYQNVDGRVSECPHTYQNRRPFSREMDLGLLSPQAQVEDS
The target in experiment [9] is AP2-associated protein kinase 1 (Homo sapiens, UniProt Q2M2I8). In words: Selectivity interaction (LanthaScreen Eu Kinase Binding Assay) EUB0001632a AAK1. The note with it: at 10 µM.
Experiment [10] addresses Ribosomal protein S6 kinase alpha-3 (Homo sapiens, UniProt P51812). Briefly: Selectivity interaction (ActivX KiNativ screen (kinase selectivity in THP-1 cell lysates)) EUB0000639a RPS6KA3. The note with it: lysate. Format: subcellular.
Experiment [11] concerns the target Serine/threonine-protein kinase Nek7 (Homo sapiens) (UniProt Q8TDX7). In words: Selectivity interaction (ActivX KiNativ screen (kinase selectivity in THP-1 cell lysates)) EUB0000639a NEK7. Format: subcellular. The note with it: lysate, at 0.2 µM.
Experiment [12] concerns the target Bromodomain-containing protein 9 (Homo sapiens) (UniProt Q9H8M2). In words: Selectivity interaction (Human bromodomain panel (DSF assay)) EUB0000233b BRD9. Background: DSF heats the sample and reads unfolding from a dye or from intrinsic fluorescence.
Experiment [13] deals with Dual specificity testis-specific protein kinase 1 (Homo sapiens) (UniProt Q15569). The note with it: at 10 µM.
Experiment [14] deals with T1, Dual specificity mitogen-activated protein kinase kinase 3 (Homo sapiens) (UniProt P46734).
T1 sequence (whole entry): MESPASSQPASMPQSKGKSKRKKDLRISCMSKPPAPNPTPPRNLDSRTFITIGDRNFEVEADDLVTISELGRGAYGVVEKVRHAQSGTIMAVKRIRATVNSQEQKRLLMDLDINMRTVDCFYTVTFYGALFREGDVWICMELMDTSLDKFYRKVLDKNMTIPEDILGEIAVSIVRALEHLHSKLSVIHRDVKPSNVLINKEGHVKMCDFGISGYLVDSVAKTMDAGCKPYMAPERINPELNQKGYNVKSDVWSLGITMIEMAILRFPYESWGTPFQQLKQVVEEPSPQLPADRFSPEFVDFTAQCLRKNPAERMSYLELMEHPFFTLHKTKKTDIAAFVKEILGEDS
Briefly: Selectivity interaction (ActivX KiNativ screen (ex vivo kinase selectivity in human PBMCs)) EUB0001619a MAP2K3. Format: cell-based. The note with it: PBMC, at 1 µM.

The target of experiment [15] is Receptor tyrosine-protein kinase erbB-2 (Homo sapiens, UniProt P04626). Briefly: Selectivity interaction (KinomeScan (DiscoverX)) EUB0001619a ERBB2. The note with it: at 1 µM.
Experiment [16] has as its target T2, Serine/threonine-protein kinase Nek9 (Homo sapiens) (UniProt Q8TD19).
T2 sequence (whole entry): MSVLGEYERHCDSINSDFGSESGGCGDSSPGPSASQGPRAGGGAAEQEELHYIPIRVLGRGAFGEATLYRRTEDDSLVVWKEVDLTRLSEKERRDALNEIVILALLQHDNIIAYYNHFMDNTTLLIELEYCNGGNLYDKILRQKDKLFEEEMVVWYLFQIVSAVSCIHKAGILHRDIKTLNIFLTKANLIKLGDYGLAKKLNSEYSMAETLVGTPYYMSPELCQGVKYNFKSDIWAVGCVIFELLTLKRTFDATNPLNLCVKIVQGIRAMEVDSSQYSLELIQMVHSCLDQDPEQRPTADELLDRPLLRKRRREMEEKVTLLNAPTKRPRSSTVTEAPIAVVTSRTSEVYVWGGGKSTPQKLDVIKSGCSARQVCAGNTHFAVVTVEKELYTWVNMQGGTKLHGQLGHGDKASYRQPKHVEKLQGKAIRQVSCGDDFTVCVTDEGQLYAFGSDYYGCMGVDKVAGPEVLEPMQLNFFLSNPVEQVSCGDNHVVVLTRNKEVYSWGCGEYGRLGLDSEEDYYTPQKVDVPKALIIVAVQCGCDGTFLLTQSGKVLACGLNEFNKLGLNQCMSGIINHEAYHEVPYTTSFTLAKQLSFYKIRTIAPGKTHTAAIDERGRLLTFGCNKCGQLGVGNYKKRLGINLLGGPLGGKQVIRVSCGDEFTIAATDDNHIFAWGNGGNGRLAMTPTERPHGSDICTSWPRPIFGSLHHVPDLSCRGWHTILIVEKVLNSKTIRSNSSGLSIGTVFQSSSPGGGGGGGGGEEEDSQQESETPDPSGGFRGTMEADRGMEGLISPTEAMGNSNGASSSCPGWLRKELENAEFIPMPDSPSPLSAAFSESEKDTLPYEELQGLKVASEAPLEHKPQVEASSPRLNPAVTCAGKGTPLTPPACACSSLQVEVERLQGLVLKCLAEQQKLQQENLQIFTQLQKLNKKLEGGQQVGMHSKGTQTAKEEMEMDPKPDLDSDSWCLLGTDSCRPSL
In words: Selectivity interaction (ActivX KiNativ screen (ex vivo kinase selectivity in human PBMCs)) EUB0001619a NEK9. Format: cell-based. The note with it: PBMC, at 1 µM.

The target of experiment [17] is Serine/threonine-protein kinase 26 (Homo sapiens, UniProt Q9P289). The note with it: PBMC, at 1 µM.
Experiment [18] has as its target T2, Serine/threonine-protein kinase Nek9 (Homo sapiens). In words: Selectivity interaction (Kinase panel (KiNativ target engagement assay in Jurkat cells)) EUB0001635a NEK9. Format: cell-based. The note with it: at 1 µM.

Sequence of Ribosomal protein S6 kinase alpha-3 (P51812 whole entry): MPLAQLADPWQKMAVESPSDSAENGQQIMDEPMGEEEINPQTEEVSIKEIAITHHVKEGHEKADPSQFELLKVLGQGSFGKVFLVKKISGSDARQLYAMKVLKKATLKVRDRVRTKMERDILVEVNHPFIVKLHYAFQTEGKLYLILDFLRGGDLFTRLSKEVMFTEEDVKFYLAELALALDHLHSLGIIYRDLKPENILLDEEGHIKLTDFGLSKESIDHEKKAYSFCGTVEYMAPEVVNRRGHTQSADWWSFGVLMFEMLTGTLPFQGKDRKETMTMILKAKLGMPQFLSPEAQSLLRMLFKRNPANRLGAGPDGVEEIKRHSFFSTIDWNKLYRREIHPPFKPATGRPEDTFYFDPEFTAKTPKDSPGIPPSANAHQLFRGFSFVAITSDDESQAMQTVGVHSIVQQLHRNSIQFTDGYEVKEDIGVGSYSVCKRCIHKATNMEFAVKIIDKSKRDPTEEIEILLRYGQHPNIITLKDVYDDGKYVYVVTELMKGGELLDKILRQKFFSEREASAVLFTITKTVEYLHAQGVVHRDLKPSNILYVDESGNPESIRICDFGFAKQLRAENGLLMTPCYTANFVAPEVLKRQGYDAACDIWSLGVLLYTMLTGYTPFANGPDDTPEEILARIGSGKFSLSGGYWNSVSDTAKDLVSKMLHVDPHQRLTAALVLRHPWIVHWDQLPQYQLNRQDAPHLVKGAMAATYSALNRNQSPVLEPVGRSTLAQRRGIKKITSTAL
Sequence of Bromodomain-containing protein 9 (Homo sapiens) (Q9H8M2 whole entry): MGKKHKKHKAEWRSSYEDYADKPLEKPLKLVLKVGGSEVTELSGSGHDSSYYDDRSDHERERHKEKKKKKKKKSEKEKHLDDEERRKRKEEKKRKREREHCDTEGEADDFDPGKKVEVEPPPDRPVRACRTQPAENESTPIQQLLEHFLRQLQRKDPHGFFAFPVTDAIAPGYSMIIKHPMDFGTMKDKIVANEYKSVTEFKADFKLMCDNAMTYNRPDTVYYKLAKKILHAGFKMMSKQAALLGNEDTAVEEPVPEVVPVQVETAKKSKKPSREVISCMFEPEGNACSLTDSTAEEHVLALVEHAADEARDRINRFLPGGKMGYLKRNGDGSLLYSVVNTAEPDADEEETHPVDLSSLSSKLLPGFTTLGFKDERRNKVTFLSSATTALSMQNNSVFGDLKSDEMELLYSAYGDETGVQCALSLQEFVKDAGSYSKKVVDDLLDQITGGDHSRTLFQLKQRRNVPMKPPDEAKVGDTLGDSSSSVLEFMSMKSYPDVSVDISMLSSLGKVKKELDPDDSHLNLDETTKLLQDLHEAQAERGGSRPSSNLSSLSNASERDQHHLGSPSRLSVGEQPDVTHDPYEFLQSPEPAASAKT
Sequence of Cyclin-dependent kinase 9 (P50750 whole entry): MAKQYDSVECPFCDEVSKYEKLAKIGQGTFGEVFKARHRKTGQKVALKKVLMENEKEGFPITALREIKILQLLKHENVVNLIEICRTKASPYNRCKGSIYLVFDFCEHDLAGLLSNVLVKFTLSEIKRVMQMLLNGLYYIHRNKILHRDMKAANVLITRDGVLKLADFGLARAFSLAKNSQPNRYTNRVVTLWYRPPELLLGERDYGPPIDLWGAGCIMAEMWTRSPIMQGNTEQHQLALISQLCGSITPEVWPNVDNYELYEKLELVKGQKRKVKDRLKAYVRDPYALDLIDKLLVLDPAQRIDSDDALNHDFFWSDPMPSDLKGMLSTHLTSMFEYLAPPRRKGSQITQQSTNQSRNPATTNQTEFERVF

`CN(C)C/C=C/C(=O)Nc1ccc(C(=O)N2CCCC(Nc3ncc(Cl)c(-c4c[nH]c5ccccc45)n3)C2)cc1` (stereo not drawn) came in with a % of control in experiment [1] of 58%.

Take `Nc1cnc(N2CCc3cc(S(=O)(=O)Nc4c(F)cc(Cl)cc4F)cc(N4CCCC4=O)c32)nc1` [TP-020n]: the % of control came out at 100% in experiment [2], 69% in experiment [3] and 69% in experiment [4]. The % of inhibition in experiment [5] was -4.55%.

In experiment [6], `COc1cc(Nc2nc(C)cc(-c3cnn4nc(OC)ccc34)n2)cc(C(F)(F)F)c1` returned a % of control of 87%.

In the case of `Cc1cnc(Nc2ccc(F)cc2Cl)nc1-c1c[nH]c(C(=O)N[C@H](CO)c2cccc(Cl)c2)c1`, the % of inhibition in experiment [7] came to 34%.

Consider `Cn1cc(-n2cnc3c(NCc4nc5cc(Cl)c(Cl)cc5[nH]4)nc(N4CCOCC4)nc32)cn1`, for which the % of control in [8] was 34.1%. In addition, the % of inhibition in experiment [9] turned out to be 4.16%.

`CC[C@@H]1[C@H](F)C(=O)N[C@@H]1COc1nccc2cc(C(N)=O)c(OC)cc12` [ZIMLOVISERTIB]: the % of inhibition in experiment [10] (at 0.01 µM) is 16.9%; in experiment [10] (at 0.04 µM), 12.4%; in [10] (at 0.2 µM), 10.3%; in experiment [10] (at 1 µM), 8.6%; in experiment [10] (at 5 µM), 11.7%; in experiment [11], -2.2%.

In turn, `CN(C)CCCOc1ccc(-c2cc(NCCCn3cccn3)nc(S(C)(=O)=O)n2)cc1` returned a dTM in [12] of 4.8 K.

With `COCC(=O)NC/C=C/c1ccc2ncnc(Nc3ccc(Oc4ccc(C)nc4)c(C)c3)c2c1` [CP-724714], in [13], the % of control is 75%.

With `N#Cc1cccc(-c2c[nH]c3ncnc(N4CCOCC4)c23)c1`, the % of inhibition in experiment [14] is 6%; in [16], -16%; in experiment [17], 39%. The compound further came in with a % of control in experiment [15] of 73%.

Regarding `C=CC(=O)Nc1ccc(C(=O)Nc2[nH]nc3c2CN(C(=O)N[C@H](CN(C)C)c2ccccc2)C3(C)C)cc1`, the % of engagement is -1.8% in [18] (Selectivity number of off-targets 0.0, Selectivity number of targets 233.0, Source Knowledge https://www.sciencedirect.com/science/article/pii/S2451945619300674?via%3Dihub) and -1.7% in [18].
